According to ChEMBL document CHEMBL1142322, “Synthesis and biological evaluation of novel 8-aminomethylated oroxylin A analogues as alpha-glucosidase inhibitors” (Bioorg Med Chem Lett, 2008):
Activity calls are given as the source filed them. The calls are words filed in the database; no cut-off is given here.

What was measured:
Saccharomyces cerevisiae = assay: (§1) Inhibition of yeast alpha-glucosidase
Rattus norvegicus = species: Rattus norvegicus; assay: (§2) Inhibition of rat intestinal alpha-glucosidase
[1] = as §1; set-up: species or system Saccharomyces cerevisiae
[2] = as §2
[3] = molecular target: Sucrase-isomaltase, intestinal (Homo sapiens, UniProt P14410); assay: Inhibition of sucrase
Chain of Sucrase-isomaltase, intestinal (P14410 2-1007 limits assumed): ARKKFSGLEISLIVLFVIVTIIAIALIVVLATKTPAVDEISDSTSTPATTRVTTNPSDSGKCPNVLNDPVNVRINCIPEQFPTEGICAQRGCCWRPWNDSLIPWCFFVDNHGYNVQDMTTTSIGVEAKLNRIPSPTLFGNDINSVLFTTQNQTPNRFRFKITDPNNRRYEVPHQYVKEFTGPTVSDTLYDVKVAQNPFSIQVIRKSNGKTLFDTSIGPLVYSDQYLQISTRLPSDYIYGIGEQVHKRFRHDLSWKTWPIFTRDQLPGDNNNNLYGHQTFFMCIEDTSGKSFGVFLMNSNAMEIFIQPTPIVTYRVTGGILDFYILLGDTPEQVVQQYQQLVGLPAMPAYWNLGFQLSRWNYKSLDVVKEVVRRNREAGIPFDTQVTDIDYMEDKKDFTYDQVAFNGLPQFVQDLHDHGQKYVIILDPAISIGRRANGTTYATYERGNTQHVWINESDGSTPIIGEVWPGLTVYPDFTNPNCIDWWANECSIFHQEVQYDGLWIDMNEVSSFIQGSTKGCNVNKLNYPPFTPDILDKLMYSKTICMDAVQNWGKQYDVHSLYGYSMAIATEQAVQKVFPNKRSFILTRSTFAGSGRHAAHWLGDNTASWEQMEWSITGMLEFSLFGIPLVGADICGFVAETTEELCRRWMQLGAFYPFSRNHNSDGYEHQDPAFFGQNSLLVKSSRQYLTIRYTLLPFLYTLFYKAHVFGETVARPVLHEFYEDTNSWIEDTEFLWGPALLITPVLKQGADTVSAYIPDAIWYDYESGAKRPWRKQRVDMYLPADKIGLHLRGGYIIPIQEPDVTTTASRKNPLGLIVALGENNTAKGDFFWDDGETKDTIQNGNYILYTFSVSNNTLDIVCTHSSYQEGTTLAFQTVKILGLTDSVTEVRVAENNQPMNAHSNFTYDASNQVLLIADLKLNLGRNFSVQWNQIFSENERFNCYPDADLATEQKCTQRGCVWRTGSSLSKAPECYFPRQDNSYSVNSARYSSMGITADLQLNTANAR
Chain of Sucrase-isomaltase, intestinal (P14410 1008-1827 limits assumed): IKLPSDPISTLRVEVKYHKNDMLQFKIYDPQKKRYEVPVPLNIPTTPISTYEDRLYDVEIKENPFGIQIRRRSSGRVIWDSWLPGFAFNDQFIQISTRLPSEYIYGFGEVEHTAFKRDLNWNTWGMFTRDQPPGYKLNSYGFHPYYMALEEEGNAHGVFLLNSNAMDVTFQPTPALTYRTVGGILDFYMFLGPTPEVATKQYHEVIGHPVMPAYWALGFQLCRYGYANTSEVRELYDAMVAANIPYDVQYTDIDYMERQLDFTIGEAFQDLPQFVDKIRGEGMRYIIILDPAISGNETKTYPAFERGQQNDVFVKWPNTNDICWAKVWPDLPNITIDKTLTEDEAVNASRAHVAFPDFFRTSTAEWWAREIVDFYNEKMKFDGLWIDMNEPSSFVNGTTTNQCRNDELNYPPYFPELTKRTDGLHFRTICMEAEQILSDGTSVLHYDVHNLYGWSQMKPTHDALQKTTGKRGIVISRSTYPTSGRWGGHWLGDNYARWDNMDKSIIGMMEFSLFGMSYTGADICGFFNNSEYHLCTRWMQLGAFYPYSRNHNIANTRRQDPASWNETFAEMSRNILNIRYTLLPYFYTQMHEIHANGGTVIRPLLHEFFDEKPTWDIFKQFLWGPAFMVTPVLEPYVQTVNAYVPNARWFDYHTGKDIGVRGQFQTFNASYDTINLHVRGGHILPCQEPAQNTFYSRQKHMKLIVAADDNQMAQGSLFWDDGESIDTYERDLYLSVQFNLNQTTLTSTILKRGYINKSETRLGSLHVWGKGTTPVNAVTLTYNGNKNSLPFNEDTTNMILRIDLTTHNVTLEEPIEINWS

| SMILES | Activity (Saccharomyces cerevisiae) | Activity (Rattus norvegicus) | IC50 [1] [µM] | IC50 [2] [µM] | IC50 [3] [µM] |
| --- | --- | --- | --- | --- | --- |
| COc1c(O)c(CN(c2ccccc2)c2ccccc2)c2oc(-c3ccccc3)cc(=O)c2c1O | inactive | inactive |  |  |  |
| COc1c(O)c(CN2CCOCC2)c2oc(-c3ccccc3)cc(=O)c2c1O |  |  | 150 | 76 |  |
| COc1c(O)c(CN(C)Cc2ccccc2)c2oc(-c3ccccc3)cc(=O)c2c1O | inactive | inactive |  |  |  |
| COc1c(O)c(CNCc2ccccc2)c2oc(-c3ccccc3)cc(=O)c2c1O | inactive | inactive |  |  |  |
| COc1c(O)c(CN(C)Cc2ccco2)c2oc(-c3ccccc3)cc(=O)c2c1O | inactive | inactive |  |  |  |
| C[C@H]1O[C@H](O[C@H]2[C@H](O)[C@@H](O)[C@@H](O[C@H]3[C@H](O)[C@@H](O)C(O)O[C@@H]3CO)O[C@@H]2CO)[C@H](O)[C@@H](O)[C@@H]1N[C@H]1C=C(CO)[C@@H](O)[C@H](O)[C@H]1O (some centres undefined) [ACARBOSE] |  |  |  | 6.38 |  |
| COc1c(O)c(CN2CCN(C)CC2)c2oc(-c3ccccc3)cc(=O)c2c1O |  |  | 98.8 | 35.4 |  |
| OC[C@H]1NC[C@H](O)[C@@H](O)[C@@H]1O [DUVOGLUSTAT] |  |  | 49.3 |  |  |
| COc1c(O)c(CN2CCCCC2)c2oc(-c3ccccc3)cc(=O)c2c1O |  |  | 167 | 50.7 |  |
| COc1c(O)c(CN2CCN(C(=O)OC(C)(C)C)CC2)c2oc(-c3ccccc3)cc(=O)c2c1O |  |  | 84.4 | 75 |  |

More lines, now with the values ahead:

| Activity (Saccharomyces cerevisiae) | Activity (Rattus norvegicus) | IC50 [1] [µM] | IC50 [2] [µM] | IC50 [3] [µM] | SMILES |
| --- | --- | --- | --- | --- | --- |
| inactive | inactive |  |  |  | COc1c(O)c(CN2CCCC2)c2oc(-c3ccccc3)cc(=O)c2c1O |
| inactive | inactive |  |  |  | CCCCNCc1c(O)c(OC)c(O)c2c(=O)cc(-c3ccccc3)oc12 |
|  |  | 203 | 215 | 52 | O=c1cc(-c2ccccc2)oc2cc(O)c(O)c(O)c12 [BAICALEIN] |
|  |  | 371 | 376 |  | O=c1cc(-c2ccccc2)oc2cc(O)cc(O)c12 [CHRYSIN] |
|  |  | 124 | 135 |  | COc1c(O)cc2oc(-c3ccccc3)cc(=O)c2c1O [OROXYLIN A] |
